Results reported in patent US20240300944A1, “NOVEL UREA DERIVATIVE COMPOUND AS RON INHIBITOR” (LG CHEM, LTD., priority 2021, published 2024).

Columns and labels:
RON = RON (Homo sapiens, UniProt Q04912); assay: Inhibitory activity against RON, TR-FRET kinase assay; type: biochemical; settings: RON enzyme
Protocol: In order to measure the inhibitory activity of each of the compounds of Examples against RON, the IC50 of each of the compounds was measured using a Time-Resolved Fluorescence Energy Transfer Chemistry (TR-FRET).
(§1) Specifically, the compound was prepared to a concentration of 1 mM with 100% DMSO and was diluted 10 times in a stepwise manner through 3-fold dilution. 2 ul of the compound diluted in a stepwise manner was added to a 96-well-plate containing 48 ul of a 1× kinase reaction buffer (50 mM HEPES (pH 7.4), 0.01% Tween-20, 5 mM DTT, 0.5 mM Na3VO4, 2 mM EGTA, 10 mM MgCl2).
The RON protein was diluted to a concentration of 49.3 nM with an RON storage buffer (50 mM Tris-HCl (pH 7.5), 150 mM NaCl, 0.5 mM EDTA, 0.02% Triton X-100), and then diluted again to a concentration of 0.4 nM with a 1× kinase reaction buffer. As a substrate cocktail, a RON-specific substrate mixture (40 uM ULight-labeled Poly GT, 100 nM ATP) at a concentration 2 times the final reaction concentration.
Thereafter, a 384-well-plate was prepared, and 2.5 ul of each of the diluted compounds of Examples was added to a corresponding well of experimental group wells, and 2.5 ul of a 4% DMSO solution was dispensed into high control wells and low control wells.
(§2) Thereafter, 2.5 μL of 0.4 nM RON was dispensed into the high control wells and the experimental group wells, and 2.5 μL of a 1× kinase reaction buffer was added to the low control wells, and the RON and the reaction buffer were centrifuged at room temperature for 40 seconds at 1000 RPM, and then incubated at room temperature for 20 to 30 minutes. Then, 5 μL of a substrate cocktail (2×) was dispensed into all wells, centrifuged at room temperature for 40 seconds at 1000 RPM, and then incubated at room temperature for 60 minutes. Thereafter, 5 μL of 30 mM EDTA was added to all wells to terminate the reaction, and then incubated again at room temperature for 5 minutes. Thereafter, 5 μL of a 4× phosphotyrosine antibody (Perkin Elmer) containing europium was added to all wells, and then incubated at room temperature for 60 minutes. After the incubation, the 384-well-plate was read with a Vison plate reader. At this time, the excitation wavelength was 340 nm, and the emission wavelength was 620 nm and 665 nm. The IC50 value of the compound of each Example was derived using the GraphPd Prism7 program.

cMET = cMET (Homo sapiens, UniProt P08581); assay: Inhibitory activity against MET (cMET), TR-FRET kinase assay; type: biochemical; settings: cMET enzyme
Sequence of cMET (P08581 25-1390): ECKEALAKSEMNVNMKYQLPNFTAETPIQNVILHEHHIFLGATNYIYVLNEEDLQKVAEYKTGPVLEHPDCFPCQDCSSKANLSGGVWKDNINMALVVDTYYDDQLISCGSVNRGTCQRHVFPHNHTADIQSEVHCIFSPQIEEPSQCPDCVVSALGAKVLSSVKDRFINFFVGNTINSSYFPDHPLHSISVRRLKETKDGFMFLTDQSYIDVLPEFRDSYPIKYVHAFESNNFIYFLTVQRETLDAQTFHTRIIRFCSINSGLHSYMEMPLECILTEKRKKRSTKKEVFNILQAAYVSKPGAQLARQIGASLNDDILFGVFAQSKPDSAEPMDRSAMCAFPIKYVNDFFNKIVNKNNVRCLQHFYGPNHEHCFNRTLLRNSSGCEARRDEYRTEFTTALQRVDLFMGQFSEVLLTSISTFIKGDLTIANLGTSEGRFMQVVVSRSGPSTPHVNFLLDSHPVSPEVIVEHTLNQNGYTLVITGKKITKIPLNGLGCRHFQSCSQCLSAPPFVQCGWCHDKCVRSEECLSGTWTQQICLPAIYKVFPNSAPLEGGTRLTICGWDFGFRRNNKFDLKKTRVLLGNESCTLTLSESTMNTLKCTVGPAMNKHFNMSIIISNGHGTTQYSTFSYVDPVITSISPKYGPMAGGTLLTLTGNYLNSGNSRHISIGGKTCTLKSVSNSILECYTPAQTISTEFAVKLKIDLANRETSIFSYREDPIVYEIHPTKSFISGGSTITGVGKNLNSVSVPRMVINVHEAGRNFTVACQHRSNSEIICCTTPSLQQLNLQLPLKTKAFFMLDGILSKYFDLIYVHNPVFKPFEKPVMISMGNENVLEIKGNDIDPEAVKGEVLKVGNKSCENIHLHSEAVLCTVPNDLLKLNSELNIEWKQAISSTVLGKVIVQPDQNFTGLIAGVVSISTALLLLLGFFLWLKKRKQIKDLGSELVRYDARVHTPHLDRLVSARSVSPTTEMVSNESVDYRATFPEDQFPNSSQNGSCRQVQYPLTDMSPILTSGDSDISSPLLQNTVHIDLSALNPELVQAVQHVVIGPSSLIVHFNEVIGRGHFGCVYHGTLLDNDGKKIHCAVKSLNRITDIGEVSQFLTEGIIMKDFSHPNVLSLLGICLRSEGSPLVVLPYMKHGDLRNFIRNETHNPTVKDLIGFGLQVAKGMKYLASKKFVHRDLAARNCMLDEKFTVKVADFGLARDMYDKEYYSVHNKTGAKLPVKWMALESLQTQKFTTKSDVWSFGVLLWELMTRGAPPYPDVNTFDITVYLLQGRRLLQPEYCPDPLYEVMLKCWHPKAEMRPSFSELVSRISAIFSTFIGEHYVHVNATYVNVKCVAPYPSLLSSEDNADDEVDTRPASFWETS
Protocol: In addition, in order to measure the enzyme activity inhibition for cMET, the evaluation was performed in the same manner as the enzyme activity inhibition measurement experiment for the RON.
as §1, with “7.4), 0.05% BSA, 0.005%” for “7.4), 0.01%”, “Tween-20, 1” for “Tween-20, 5”, “mM MnCl2, 20” for “mM Na3VO4, 2 mM EGTA, 10”
The cMET protein was diluted to a concentration of 263 nM with a cMET storage buffer (50 mM Tris-HCl (pH 7.5), 150 mM NaCl, 0.05% Brij35, 1 mM DTT, 10% Glycerol), and then diluted again to a concentration of 2 nM with a 1× kinase reaction buffer. As a substrate cocktail, a MET-specific substrate mixture (5 uM TK peptide, […]) at a concentration 2 times the final reaction concentration.
Thereafter, a 384-well-plate was prepared, and 2.5 μl of each of the diluted compounds of Examples was added to a corresponding well of experimental group wells, and 2.5 μl of a 4% DMSO solution was dispensed into high control wells and low control wells.
as §2, with “of 2” for “of 0.4”, “nM cMET” for “nM RON”, “of 90” for “of 30”

Sequence of RON (Q04912 25-1400, species assumed): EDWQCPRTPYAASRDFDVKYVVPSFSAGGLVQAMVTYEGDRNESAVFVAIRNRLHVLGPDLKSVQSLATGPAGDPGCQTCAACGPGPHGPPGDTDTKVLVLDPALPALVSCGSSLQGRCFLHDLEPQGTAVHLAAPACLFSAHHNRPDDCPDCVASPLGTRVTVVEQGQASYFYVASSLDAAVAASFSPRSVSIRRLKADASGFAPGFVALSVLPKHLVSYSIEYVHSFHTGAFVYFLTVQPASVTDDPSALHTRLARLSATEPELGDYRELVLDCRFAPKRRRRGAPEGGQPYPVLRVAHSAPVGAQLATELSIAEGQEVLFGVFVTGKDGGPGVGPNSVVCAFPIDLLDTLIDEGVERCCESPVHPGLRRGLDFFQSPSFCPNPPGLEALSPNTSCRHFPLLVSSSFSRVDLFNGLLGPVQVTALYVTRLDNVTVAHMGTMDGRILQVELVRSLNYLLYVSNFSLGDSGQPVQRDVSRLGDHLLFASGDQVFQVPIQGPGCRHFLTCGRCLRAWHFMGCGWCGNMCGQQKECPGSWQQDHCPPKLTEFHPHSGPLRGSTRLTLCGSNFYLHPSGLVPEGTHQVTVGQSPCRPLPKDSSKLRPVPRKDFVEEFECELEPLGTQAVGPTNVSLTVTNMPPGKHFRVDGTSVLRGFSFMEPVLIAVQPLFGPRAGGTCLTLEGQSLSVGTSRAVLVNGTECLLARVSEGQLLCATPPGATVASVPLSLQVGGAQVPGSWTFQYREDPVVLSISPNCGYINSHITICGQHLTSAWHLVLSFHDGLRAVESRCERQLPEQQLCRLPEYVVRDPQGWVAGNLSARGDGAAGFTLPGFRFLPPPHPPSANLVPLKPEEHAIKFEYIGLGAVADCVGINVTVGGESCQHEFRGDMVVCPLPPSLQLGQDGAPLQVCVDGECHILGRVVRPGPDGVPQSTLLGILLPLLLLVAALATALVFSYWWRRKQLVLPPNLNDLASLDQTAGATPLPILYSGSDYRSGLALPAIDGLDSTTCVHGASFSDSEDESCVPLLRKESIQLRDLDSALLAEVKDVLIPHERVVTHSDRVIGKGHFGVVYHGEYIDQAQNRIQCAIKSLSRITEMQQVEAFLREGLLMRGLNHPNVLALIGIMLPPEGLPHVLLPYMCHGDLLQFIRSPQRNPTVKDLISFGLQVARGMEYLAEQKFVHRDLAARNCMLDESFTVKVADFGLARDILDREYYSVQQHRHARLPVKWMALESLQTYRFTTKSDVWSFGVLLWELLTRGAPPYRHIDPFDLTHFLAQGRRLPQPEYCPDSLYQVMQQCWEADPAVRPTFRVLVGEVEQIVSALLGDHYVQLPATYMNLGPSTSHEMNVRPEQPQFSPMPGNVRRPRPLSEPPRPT

Row | Structure (SMILES) | IC50 (RON) [nM] | IC50 (cMET) [nM]
1 | CC(C)n1c(=O)[nH]c2nccc(Oc3ccc(NC(=O)c4cnn(-c5ccccc5)c4-c4ccccc4)cc3F)c21 [Example 19, N-(3-fluoro-4-((1-isopropyl-2-oxo-2,3-dihydro-1H-imidazo[4,5-b]pyridine-7-yl)oxy)phenyl)-1,5-diphenyl-1H-pyrazole-4-carboxamide] | 50 to 500 | 50 to 500
2 | CC(C)n1c(=O)[nH]c2nccc(Oc3ccc(NC(=O)c4cnn(C5CCCOC5)c4C(F)(F)F)cc3F)c21 (stereo not shown) [Example 20, N-(3-fluoro-4-((1-isopropyl-2-oxo-2,3-dihydro-1H-imidazo[4,5-b]pyridine-7-yl)oxy)phenyl)-1-(tetrahydro-2H-pyran-3-yl)-5-(trifluoromethyl)-1H-pyrazole-4-carboxamide] | < 50 | 500 to 5000
3 | CC(C)n1c(=O)[nH]c2nccc(Oc3ccc(NC(=O)c4ccc(Br)cc4C(F)(F)F)cc3F)c21 [Example 25, 4-bromo-N-(3-fluoro-4-((1-isopropyl-2-oxo-2,3-dihydro-1H-imidazo[4,5-b]pyridine-7-yl)oxy)phenyl)-2-(trifluoromethyl)benzamide] | 50 to 500 | > 5000
4 | CC(C)n1c(=O)[nH]c2nccc(Oc3ccc(NC(=O)c4cnn(-c5cccc6ccccc56)c4C(F)(F)F)cc3F)c21 [Example 26, N-(3-fluoro-4-((1-isopropyl-2-oxo-2,3-dihydro-1H-imidazo[4,5-b]pyridine-7-yl)oxy)phenyl)-1-(naphthalene-1-yl)-5-(trifluoromethyl)-1H-pyrazole-4-carboxamide] | 50 to 500 | 500 to 5000
5 | CC(C)n1c(=O)[nH]c2nccc(Oc3ccc(NC(=O)c4cccc(Br)c4C(F)(F)F)cc3F)c21 [Example 27, 3-bromo-N-(3-fluoro-4-((1-isopropyl-2-oxo-2,3-dihydro-1H-imidazo[4,5-b]pyridine-7-yl)oxy)phenyl)-2-(trifluoromethyl)benzamide] | 500 to 5000 | > 5000
6 | CC(C)n1c(=O)[nH]c2nccc(Oc3ccc(NC(=O)c4cnn(C5CCOCC5)c4C(F)(F)F)cc3F)c21 [Example 29, N-(3-fluoro-4-((1-isopropyl-2-oxo-2,3-dihydro-1H-imidazo[4,5-b]pyridine-7-yl)oxy)phenyl)-1-(tetrahydro-2H-pyran-4-yl)-5-(trifluoromethyl)-1H-pyrazole-4-carboxamide] | 50 to 500 | 50 to 500
7 | CC(C)n1c(=O)[nH]c2nccc(Oc3ccc(NC(=O)c4cnn(C(C)(C)C)c4C(F)(F)F)cc3F)c21 [Example 30, 1-(tert-butyl)-N-(3-fluoro-4-((1-isopropyl-2-oxo-2,3-dihydro-1H-imidazo[4,5-b]pyridine-7-yl)oxy)phenyl)-5-(trifluoromethyl)-1H-pyrazole-4-carboxamide] | 50 to 500 | 500 to 5000
8 | CC(C)n1c(=O)[nH]c2nccc(Oc3ccc(NC(=O)c4cnn(C5CCCN(C)C5)c4C(F)(F)F)cc3F)c21 (stereo not shown) [Example 33, N-(3-fluoro-4-((1-isopropyl-2-oxo-2,3-dihydro-1H-imidazo[4,5-b]pyridine-7-yl)oxy)phenyl)-1-(1-methylpiperidine-3-yl)-5-(trifluoromethyl)-1H-pyrazole-4-carboxamide] | 50 to 500 | 500 to 5000

More lines, now with the values ahead:

Row | IC50 (RON) [nM] | IC50 (cMET) [nM] | Structure (SMILES)
9 | < 50 | 500 to 5000 | O=C(Nc1ccc(Oc2ccnc3[nH]c(=O)n(C4CCCC4)c23)c(F)c1)c1ncn(-c2ccccc2)c1C(F)(F)F [Example 21, N-(4-((1-cyclopentyl-2-oxo-2,3-dihydro-1H-imidazo[4,5-b]pyridine-7-yl)oxy)-3-fluorophenyl)-1-phenyl-5-(trifluoromethyl)-1H-imidazole-4-carboxamide]
10 | < 50 | 500 to 5000 | O=C(Nc1ccc(Oc2ccnc3[nH]c(=O)n(C4CCCC4)c23)c(F)c1)c1cnn(-c2ccccc2)c1C(F)(F)F [Example 22, N-(4-((1-cyclopentyl-2-oxo-2,3-dihydro-1H-imidazo[4,5-b]pyridine-7-yl)oxy)-3-fluorophenyl)-1-phenyl-5-(trifluoromethyl)-1H-pyrazole-4-carboxamide]
11 | 50 to 500 | 500 to 5000 | CCc1c(C(=O)Nc2ccc(Oc3ccnc4[nH]c(=O)n(C5CCCC5)c34)c(F)c2)cnn1-c1ccccc1 [Example 23, N-(4-((1-cyclopentyl-2-oxo-2,3-dihydro-1H-imidazo[4,5-b]pyridine-7-yl)oxy)-3-fluorophenyl)-5-ethyl-1-phenyl-1H-pyrazole-4-carboxamide]
12 | 500 to 5000 | 500 to 5000 | CC(C)n1c(=O)[nH]c2nccc(Oc3ccc(NC(=O)c4ccccc4C(F)(F)F)cc3F)c21 [Example 24, N-(3-fluoro-4-((1-isopropyl-2-oxo-2,3-dihydro-1H-imidazo[4,5-b]pyridine-7-yl)oxy)phenyl)-2-(trifluoromethyl)benzamide]
13 | < 50 | 500 to 5000 | CC(C)n1c(=O)[nH]c2nccc(Oc3ccc(NC(=O)c4cnn(C5CCCCC5)c4C(F)(F)F)cc3F)c21 [Example 28, 1-cyclohexyl-N-(3-fluoro-4-((1-isopropyl-2-oxo-2,3-dihydro-1H-imidazo[4,5-b]pyridine-7-yl)oxy)phenyl)-5-(trifluoromethyl)-1H-pyrazole-4-carboxamide]
14 | < 50 | 500 to 5000 | CC(C)n1c(=O)[nH]c2nccc(Oc3ccc(NC(=O)c4cnn(C5CCCCCC5)c4C(F)(F)F)cc3F)c21 [Example 31, 1-cycloheptyl-N-(3-fluoro-4-((1-isopropyl-2-oxo-2,3-dihydro-1H-imidazo[4,5-b]pyridine-7-yl)oxy)phenyl)-5-(trifluoromethyl)-1H-pyrazole-4-carboxamide]
15 | 50 to 500 | 500 to 5000 | CC(C)n1c(=O)[nH]c2nccc(Oc3ccc(NC(=O)Cc4cnn(-c5ccccc5)c4C(F)(F)F)cc3F)c21 [Example 32, N-(3-fluoro-4-((1-isopropyl-2-oxo-2,3-dihydro-1H-imidazo[4,5-b]pyridine-7-yl)oxy)phenyl)-2-(1-phenyl-5-(trifluoromethyl)-1H-pyrazol-4-yl)acetamide]
16 | < 50 | 500 to 5000 | CC(C)n1c(=O)[nH]c2nccc(Oc3ccc(NC(=O)c4cnn(-c5ccccc5F)c4C(F)(F)F)cc3F)c21 [Example 34, N-(3-fluoro-4-((1-isopropyl-2-oxo-2,3-dihydro-1H-imidazo[4,5-b]pyridine-7-yl)oxy)phenyl)-1-(2-fluorophenyl)-5-(trifluoromethyl)-1H-pyrazole-4-carboxamide]
17 | < 50 | 500 to 5000 | CC(C)n1c(=O)[nH]c2nccc(Oc3ccc(NC(=O)c4cnn(-c5ccccc5Cl)c4C(F)(F)F)cc3F)c21 [Example 35, 1-(2chlorophenyl)-N-(3-fluoro-4-((1-isopropyl-2-oxo-2,3-dihydro-1H-imidazo[4,5-b]pyridine-7-yl)oxy)phenyl)-5-(trifluoromethyl)-1H-pyrazole-4-carboxamide]
